From ChEMBL document CHEMBL5108080 (J Med Chem, 2022)

Experiments:
Influenza A virus [1] = test: (§1) Antiviral activity against group 2 influenza A virus H3N2 (A/Hong Kong-11/1968) infected in human A549 cells assessed as inhibition of viral entry preincubated with compound for 30 mins followed by viral infection for 1 hour further incubated for 48 hrs with replacement of fresh medium containing compound; format: functional, organism-based
Influenza A virus [2] = test: as §1, with “H3N2 (A/Victoria/361/2011)” for “H3N2 (A/Hong Kong-11/1968)”, “containing compound.” for “containing compound”; format: functional, organism-based

Structure (SMILES) | EC50 (Influenza A virus [1]) [nM] | EC50 (Influenza A virus [2]) [nM]
c1ccc(-c2nc3ncccn3c2NC2CCCCC2)cc1 | 71 | 730
COc1ccc(-c2nc3ncccn3c2NC2CCCCC2)cc1 | 30 | 640
Oc1ccc(-c2nc3ncccn3c2NC2CCCCC2)cc1 | 360 | 1500
Fc1ccc(-c2nc3ncccn3c2NC2CCCCC2)cc1 | 320 | 420
Brc1ccc(-c2nc3ncccn3c2NC2CCCCC2)cc1 | 190 | 1500
Cc1cc(Br)ccc1-c1nc2ncccn2c1NC1CCCCC1 | 340 | –
CCOC(=O)C1=C[C@@H](OC(CC)CC)[C@H](NC(C)=O)[C@@H](N)C1 [OSELTAMIVIR] | 22 | > 10000
